# According to paper PMC12785453, “Oral Fluid Concentrations and Pharmacological Effects of Clephedrone and Methylone in Humans” (International Journal of Molecular Sciences, 2025):
# Read-outs that look alike come from different tables or passages of the source.
# How the values were obtained:
# [1] = cited from earlier work
# [2] = tested on: healthy male participants; assay: Subjective effects, visual analog scales (VAS), methylone trial; assay type: in vivo, humans
# Description: Methylone pharmacology was evaluated in a study designed as a randomized, double-blind, placebo-controlled, crossover clinical trial. Four pilot studies were conducted administering methylone at oral doses of 50 (n = 3), 100 (n = 6), 150 (n = 5), and 200 mg (n = 7). Participants attended 3 experimental sessions separated by a one-week wash-out period and received two doses of methylone (one dose per experimental session) compared to placebo, except in the last pilot study in which participants received one dose of methylone, compared to MDMA and placebo. However, in this manuscript, only the results corresponding to the highest methylone doses (n = 12; 150 and 200 mg; mean dose = 179.2 mg) are presented, to enable comparison with clephedrone self-administration. Participants were recruited by word of mouth in the volunteer database of the clinical pharmacology unit.
# Methylone hydrochloride of high purity in powder form was acquired from LGC Standards (Teddington, UK) for the controlled study. The Pharmacy Department of the Hospital Universitari Germans Trias i Pujol was responsible for manufacturing, storing, and dispensing identical and opaque soft gelatin capsules containing 50 mg of methylone or a placebo (maltodextrin). Treatment consisted of 5 capsules that combined methylone and/or a placebo to reach the target dose. Details can be found in the previous article.
# Subjective effects were evaluated with visual analog scales (VAS), the short form of the Addiction Research Center Inventory (ARCI), and the Evaluation of Subjective Effects of Substances with Abuse Potential questionnaire (VESSPA-SSE). In addition, the Sensitivity to Drug Reinforcement Questionnaire (SDRQ) and a pharmacological identification class questionnaire were used in the controlled study administering methylone.
# VAS encompassed several adjectives that participants had to rate from “not at all” (0 mm) to “extremely” (100 mm) according to their sensations. This scale included 28 items: intensity, stimulated, high, good effects, bad effects, liking, changes in distances, changes in colors, changes in shapes, changes in lights, hallucinations (seeing lights or spots), hallucinations (seeing things, animals, insects, or people), changes in hearing, hallucinations (hearing sounds or voices), drowsiness, concentration, dizziness, confusion, different or changed body feeling, unreal body feeling, different surroundings, unreal surroundings, open, trust, feeling close to others, I want to be with other people, I want to hug someone, sexual desire, and sexual arousal.
# Participants included in the naturalistic clephedrone study completed VAS at baseline, 0.50, 1, 1.5, 2, 3, 4, and 5 h, and ARCI and VESSPA at baseline, 1, 2, 3, 4, and 5 h after self-administering clephedrone. In the controlled study, VAS was performed at baseline and 0.25, 0.50, 0.75, 1, 1.5, 2, 3, 4, 6, 8, 10, and 24 h, and ARCI and VESSPA at baseline and 1, 2, 3, 4, 6, 8, and 10 h after administering methylone. Participants completed SDRQ and VAS sexual desire and arousal at baseline, 1 and 10 h, and the pharmacological class identification questionnaire at 8 h.
# For statistical analysis, values of physiological (SBP, DBP, HR, and T) and subjective effects (VAS, ARCI, and VESSPA-SSE) were baseline–adjusted. Maximum effects (Emax) and the time needed to reach maximum effects (Tmax) were determined, and the area under the curve up to 5 h (AUC0–5h) for clephedrone and up to 6 h (AUC0–6h) for methylone was calculated using the trapezoidal rule. Emax and AUC values are presented as mean ± standard deviation, whereas Tmax is presented in median (range).
# To find possible significant changes through the time course compared to baseline, a Dunnett multiple comparison test was carried out to compare each time point with baseline in both drug conditions. […]
# [3] = 150 or 200 mg oral, n=12, listed as methylone
# [4] = AUC0–6h, 150 or 200 mg oral, n=12
smiles,measurement,setting,value
"CNC(C)C(=O)c1ccc(Cl)cc1 (stereo not drawn) [Clephedrone, 4-chloromethcathinone]","Blood concentrations, mean",[1]; fatal cases,547 ng/mL
same,"Blood concentrations, mean","[1]; traffic controls, non-fatal cases (n = 9)",21.1 ng/mL
"CNC(C)C(=O)c1ccc2c(c1)OCO2 (stereo not drawn) [Methylone, 3,4-methylenedioxy-N-methylcathinone]",VAS Bad effects Emax,"[2]; 150 or 200 mg oral, n=12",0.17 ± 0.58 mm
same,VAS Changes in colors Emax,"[2]; 150 or 200 mg oral, n=12",0.00 ± 0.00 mm
same,VAS Changes in colors Tmax,"[2]; 150 or 200 mg oral, n=12",0.0 (0.0–0.0) h
same,VAS Changes in distances Emax,"[2]; 150 or 200 mg oral, n=12",1.58 ± 5.48 mm
same,VAS Changes in distances Tmax,"[2]; 150 or 200 mg oral, n=12",0.0 (0.0–1.0) h
same,VAS Changes in hearing Emax,"[2]; 150 or 200 mg oral, n=12",0.42 ± 1.44 mm
same,VAS Changes in hearing Tmax,"[2]; 150 or 200 mg oral, n=12",0.0 (0.0–0.5) h
same,VAS Changes in lights Emax,"[2]; 150 or 200 mg oral, n=12",0.00 ± 0.00 mm
same,VAS Changes in lights Tmax,"[2]; 150 or 200 mg oral, n=12",0.0 (0.0–0.0) h
same,VAS Concentration Emax,"[2]; 150 or 200 mg oral, n=12",2.50 ± 4.21 mm
same,VAS Confusion Emax,"[2]; 150 or 200 mg oral, n=12",1.33 ± 2.57 mm
same,VAS Different or changed body feeling Emax,"[2]; 150 or 200 mg oral, n=12",12.25 ± 10.68 mm
same,VAS Different surroundings Emax,"[2]; 150 or 200 mg oral, n=12",0.33 ± 1.15 mm
same,VAS Dizziness Emax,"[2]; 150 or 200 mg oral, n=12",3.08 ± 5.33 mm
same,VAS Drowsiness Emax,"[2]; 150 or 200 mg oral, n=12",10.17 ± 16.16 mm
same,VAS Feeling close to others Emax,"[2]; 150 or 200 mg oral, n=12",15.92 ± 19.97 mm
same,VAS Good effects Emax,"[2]; 150 or 200 mg oral, n=12",29.75 ± 21.60 mm
same,VAS High Emax,"[2]; 150 or 200 mg oral, n=12",26.67 ± 18.12 mm
same,VAS I want to be with other people Emax,"[2]; 150 or 200 mg oral, n=12",17.42 ± 20.62 mm
same,VAS I want to hug someone Emax,"[2]; 150 or 200 mg oral, n=12",15.33 ± 21.76 mm
same,VAS Intensity Emax,"[2]; 150 or 200 mg oral, n=12",25.17 ± 18.95 mm
same,VAS Liking Emax,"[2]; 150 or 200 mg oral, n=12",30.33 ± 23.26 mm
same,VAS Open Emax,"[2]; 150 or 200 mg oral, n=12",15.67 ± 19.21 mm
same,VAS Sexual arousal Emax,"[2]; 150 or 200 mg oral, n=12",0.50 ± 1.45 mm
same,VAS Sexual desire Emax,"[2]; 150 or 200 mg oral, n=12",1.08 ± 2.07 mm
same,VAS Trust Emax,"[2]; 150 or 200 mg oral, n=12",15.92 ± 20.07 mm
same,VAS Unreal body feeling Emax,"[2]; 150 or 200 mg oral, n=12",0.00 ± 0.00 mm
same,VAS Unreal surroundings Emax,"[2]; 150 or 200 mg oral, n=12",0.00 ± 0.00 mm
same,VAS Feeling close to others Emax,[2]; [3],> 15 mm
same,VAS Good effects Emax,[2]; [3],exceeding 20 mm
same,VAS High Emax,[2]; [3],exceeding 20 mm
same,VAS I want to be with other people Emax,[2]; [3],> 15 mm
same,VAS I want to hug someone Emax,[2]; [3],> 15 mm
same,VAS Intensity Emax,[2]; [3],exceeding 20 mm
same,VAS Liking Emax,[2]; [3],exceeding 20 mm
same,VAS Open Emax,[2]; [3],> 15 mm
same,VAS Stimulated Emax,[2]; [3],exceeding 20 mm
same,VAS Trust Emax,[2]; [3],> 15 mm
same,VAS Bad effects AUC0-5/6 h,[2]; [4],0.06 ± 0.22 mm·h
same,VAS Changes in colors AUC0-5/6 h,[2]; [4],0.00 ± 0.00 mm·h
same,VAS Changes in distances AUC0-5/6 h,[2]; [4],0.72 ± 2.49 mm·h
same,VAS Changes in hearing AUC0-5/6 h,[2]; [4],0.10 ± 0.36 mm·h
same,VAS Changes in lights AUC0-5/6 h,[2]; [4],0.00 ± 0.00 mm·h
same,VAS Concentration AUC0-5/6 h,[2]; [4],1.95 ± 3.58 mm·h
same,VAS Confusion AUC0-5/6 h,[2]; [4],1.46 ± 3.43 mm·h
same,VAS Different or changed body feeling AUC0-5/6 h,[2]; [4],7.96 ± 8.16 mm·h
same,VAS Different surroundings AUC0-5/6 h,[2]; [4],0.17 ± 0.58 mm·h
same,VAS Dizziness AUC0-5/6 h,[2]; [4],3.31 ± 6.88 mm·h
same,VAS Drowsiness AUC0-5/6 h,[2]; [4],19.98 ± 33.41 mm·h
same,VAS Feeling close to others AUC0-5/6 h,[2]; [4],14.20 ± 16.71 mm·h
same,VAS Good effects AUC0-5/6 h,[2]; [4],26.38 ± 22.79 mm·h
same,VAS High AUC0-5/6 h,[2]; [4],22.85 ± 18.54 mm·h
same,VAS I want to be with other people AUC0-5/6 h,[2]; [4],16.94 ± 19.79 mm·h
same,VAS I want to hug someone AUC0-5/6 h,[2]; [4],14.27 ± 19.51 mm·h
same,VAS Intensity AUC0-5/6 h,[2]; [4],20.30 ± 18.35 mm·h
same,VAS Liking AUC0-5/6 h,[2]; [4],28.45 ± 24.43 mm·h
same,VAS Open AUC0-5/6 h,[2]; [4],15.04 ± 17.47 mm·h
same,VAS Sexual arousal AUC0-5/6 h,[2]; [4],2.50 ± 7.23 mm·h
same,VAS Sexual desire AUC0-5/6 h,[2]; [4],5.42 ± 10.33 mm·h
same,VAS Stimulated AUC0-5/6 h,[2]; [4],20.30 ± 18.35 mm·h
same,VAS Trust AUC0-5/6 h,[2]; [4],15.08 ± 18.74 mm·h
same,VAS Unreal body feeling AUC0-5/6 h,[2]; [4],0.00 ± 0.00 mm·h
same,VAS Unreal surroundings AUC0-5/6 h,[2]; [4],0.00 ± 0.00 mm·h
same,Time of peak pharmacological effects,[2]; oral,0.75–1 h
